Source: patent US7196110B2, “N-substituted tricyclic 3-aminopyrazoles as inhibitors for the treatment of cell proliferative disorders” (Janssen Phamaceutica N.V., priority 2002, dated 2007)
Read-outs that look alike come from different tables or passages of the source.

Target: T1, PDGF-receptor beta enzyme comprising the tyrosine kinase domain (Homo sapiens, UniProt P09619)
T1 construct: from amino acid 545 to 1106 of GenBank Access NO: AAA36427
Assay: Inhibition of PDGF-receptor kinase activity (cell-free, PLC1 peptide, 33P Flashplate)
Format: biochemical
Conditions: for inhibition at 10 µM: compound at 10 uM, read-out: Percent Inhibition @ 10 uM
Outline: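 The IC50 is the inhibitor level halving kinase activity relative to inhibitor-free wells, measured as 33P captured on a streptavidin-bound biotin-PLC1 peptide. The reaction ran 60 min at 30 °C in pH 8 Tris buffer with 1 mM DTT, 5 μM ATP and the 545–1106 kinase-domain enzyme.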

[1] = PDGF-R kinase activity, read-out: IC50
[2] = read-out: IC50 (μM) on PDGF-R kinase activity

T1 sequence (P09619 545-1106): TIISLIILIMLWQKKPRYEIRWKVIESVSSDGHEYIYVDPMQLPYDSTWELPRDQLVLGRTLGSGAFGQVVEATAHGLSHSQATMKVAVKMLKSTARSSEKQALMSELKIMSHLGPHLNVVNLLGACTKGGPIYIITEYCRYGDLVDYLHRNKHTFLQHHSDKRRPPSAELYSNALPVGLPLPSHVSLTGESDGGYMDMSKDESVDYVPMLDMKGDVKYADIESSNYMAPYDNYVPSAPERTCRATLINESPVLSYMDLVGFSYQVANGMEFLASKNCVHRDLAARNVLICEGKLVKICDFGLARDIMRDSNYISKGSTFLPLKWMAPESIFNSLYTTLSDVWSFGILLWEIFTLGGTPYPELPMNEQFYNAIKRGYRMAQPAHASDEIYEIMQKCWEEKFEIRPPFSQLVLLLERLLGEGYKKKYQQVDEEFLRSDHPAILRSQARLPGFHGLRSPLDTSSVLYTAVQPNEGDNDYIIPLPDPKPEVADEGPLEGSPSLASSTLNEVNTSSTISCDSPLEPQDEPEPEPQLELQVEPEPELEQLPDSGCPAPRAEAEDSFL

SMILES	inhibition at 10 µM (PDGF-R kinase activity) [%]	IC50 [1] [µM]	IC50 [2] [µM]
COc1cc2c(cc1OCC(O)CN1CCCC1)Cc1c-2n[nH]c1NCc1c(Cl)cccc1Cl (centres unmarked) [Compound 390, 1-[3-(2,6-Dichloro-benzylamino)-7-methoxy-2,4-dihydro-indeno[1,2-c]pyrazol-6-yloxy]-3-pyrrolidin-1-yl-propan-2-ol]	99	0.00203	
CC1c2ccccc2-c2n[nH]c(Nc3cccc(F)c3)c21 (centres unmarked) [Compound 108, (3-Fluoro-phenyl)-(4-methyl-2,4-dihydro-indeno[1,2-c]pyrazol-3-yl)-amine]	82	0.3	
c1ccc(Nc2[nH]nc3c2Cc2ccccc2-3)cc1 [Compound 1]	91	0.317	
COc1cc2c(cc1OC)-c1nn([C@@H]3O[C@H](C(=O)O)[C@@H](O)[C@H](O)[C@H]3O)c(Nc3cccc(F)c3)c1C2 [Compound 529, 6-[3-(3-Fluoro-phenylamino)-6,7-dimethoxy-4H-indeno[1,2-c]pyrazol-2-yl]-3,4,5-trihydroxy-tetrahydro-pyran-2-carboxylic acid]	44	10.6	
OCCCOc1cccc2c1Cc1c-2n[nH]c1Nc1cccc(Cl)c1 [Compound 440, 3-[3-(3-Chloro-phenylamino)-2,4-dihydro-indeno[1,2-c]pyrazol-5-yloxy]-propan-1-ol]	89.5	0.0457	
CN(C)c1ccc2c(c1)Cc1c-2n[nH]c1Nc1ccccc1 [Compound 92, N6,N6-Dimethyl-N3-phenyl-2,4-dihydro-indeno[1,2-c]pyrazole-3,6-diamine]	75	0.383	
COCCCOc1ccc2c(c1)Cc1c-2n[nH]c1Nc1cccc(Br)c1 [Compound 141, (3-Bromo-phenyl)-[6-(3-methoxy-propoxy)-2,4-dihydro-indeno[1,2-c]pyrazol-3-yl]-amine]	83.5	0.319	
COc1cc2c(cc1OC)-c1c(c(Nc3cccc(F)c3)nn1Cc1ccc(OC(C)=O)cc1)C2 [Compound 498, Acetic acid 4-[3-(3-fluoro-phenylamino)-6,7-dimethoxy-4H-indeno[1,2-c]pyrazol-1-ylmethyl]-phenyl ester]	51.5	8.33	
Clc1cccc(Nc2[nH]nc3c2Cc2c(OCCCN4CCOCC4)cccc2-3)c1 [Compound 392, (3-Chloro-phenyl)-[5-(3-morpholin-4-yl-propoxy)-2,4-dihydro-indeno[1,2-c]pyrazol-3-yl]-amine]	80	0.153	
COc1cc2c(cc1OC)C(c1ccccc1)c1c-2n[nH]c1Nc1cccc(F)c1 (centres unmarked) [Compound 302, (6,7-Dimethoxy-4-phenyl-2,4-dihydro-indeno[1,2-c]pyrazol-3-yl)-(3-fluoro-phenyl)-amine]	47		
COc1cccc(Nc2[nH]nc3c2C(C(C)C)c2cc(OC)c(OC)cc2-3)c1 (centres unmarked) [Compound 541, (4-lsopropyl-6,7-dimethoxy-2,4-dihydro-indeno[1,2-c]pyrazol-3-yl)-(3-methoxy-phenyl)-amine]	50	44.2	
COc1ccc2c(c1)Cc1c-2n[nH]c1Nc1cccc(Br)c1 [Compound 83, (3-Bromo-phenyl)-(6-methoxy-2,4-dihydro-indeno[1,2-c]pyrazol-3-yl)-amine]	93	0.0719	
COc1cccc(Nc2n[nH]c3c2Cc2c-3cc(OC)c3oc(C)nc23)c1 [Compound 560, (4-Methoxy-2-methyl-6,9-dihydro-3-oxa-1,6,7-triaza-cyclopenta[b]-as-indacen-8-yl)-(3-methoxy-phenyl)-amine]	102	0.0247	

Continued, values first:

inhibition at 10 µM (PDGF-R kinase activity) [%]	IC50 [1] [µM]	IC50 [2] [µM]	SMILES
78		0.547	CCC1c2cc(OC)c(OC)cc2-c2n[nH]c(Nc3cccnc3Cl)c21 (single isomer, unassigned) [Compound 607, (2-Chloro-pyridin-3-yl)-(4-ethyl-6,7-dimethoxy-2,4-dihydro-indeno[1,2-c]pyrazol-3-yl)-amine]
93		0.126	CNC(=S)n1nc2c(c1Nc1cccc(F)c1)Cc1cc(OC)c(OC)cc1-2 [Compound 580, 3-(3-Fluoro-phenylamino)-6,7-dimethoxy-4H-indeno[1,2-c]pyrazole-2-carbothioic acid methylamide]
90.5		1.14	CNC(=S)n1nc(Nc2cccc(F)c2)c2c1-c1cc(OC)c(OC)cc1C2 [Compound 581, 3-(3-Fluoro-phenylamino)-6,7-dimethoxy-4H-indeno[1,2-c]pyrazole-1-carbothioic acid methylamide]
87	0.215		COc1ccc2c(c1)-c1n[nH]c(Nc3cccnc3)c1C2 [Compound 173, (7-Methoxy-2,4-dihydro-indeno[1,2-c]pyrazol-3-yl)-pyridin-3-yl-amine]
85	0.692		COc1cc2c(cc1OC)-c1n[nH]c(Nc3cc(OC)c(OC)c(OC)c3)c1C2 [Compound 42, (6,7-Dimethoxy-2,4-dihydro-indeno[1,2-c]pyrazol-3-yl)-(3,4,5-trimethoxy-phenyl)-amine]
90	0.0019		COc1cc2c(cc1OC)-c1n[nH]c(NCc3ccccc3Cl)c1C2 [Compound 230, (2-Chloro-benzyl)-(6,7-dimethoxy-2,4-dihydro-indeno[1,2-c]pyrazol-3-yl)-amine]
61	0.389		COc1cc2c(cc1OC)-c1n[nH]c(NCc3cccc(C)c3)c1C2 [Compound 272, (6,7-Dimethoxy-2,4-dihydro-indeno[1,2-c]pyrazol-3-yl)-(3-methyl-benzyl)-amine]
52	1.09		COc1ccc(OC)c(Nc2[nH]nc3c2Cc2c(C)cccc2-3)c1 [Compound 101, (2,5-Dimethoxy-phenyl)-(5-methyl-2,4-dihydro-indeno[1,2-c]pyrazol-3-yl)-amine]
35			COc1cc2c(cc1OC)C(C)c1c-2n[nH]c1Nc1cccc(Cl)c1 (centres unmarked) [Compound 257, (3-Chloro-phenyl)-(6,7-dimethoxy-4-methyl-2,4-dihydro-indeno[1,2-c]pyrazol-3-yl)-amine]
96	19.1		COc1cc2c(cc1OC)-c1n[nH]c(Nc3ccccc3C(F)(F)F)c1C2 [Compound 28, (6,7-Dimethoxy-2,4-dihydro-indeno[1,2-c]pyrazol-3-yl)-(2-trifluoromethyl-phenyl)-amine]
79	1.92		COc1cc2c(cc1OC)-c1n[nH]c(Nc3ccccc3OC(F)(F)F)c1C2 [Compound 15, (6,7-Dimethoxy-2,4-dihydro-indeno[1,2-c]pyrazol-3-yl)-(2-trifluoromethoxy-phenyl)-amine]
19		362	COc1cc2c(cc1OC)-c1n[nH]c(Nc3cnccc3C(F)(F)F)c1C2 [Compound 577, (6,7-Dimethoxy-2,4-dihydro-indeno[1,2-c]pyrazol-3-yl)-(4-trifluoromethyl-pyridin-3-yl)-amine]
100	0.0151		COc1cc2c(cc1F)Cc1c-2n[nH]c1Nc1cccnc1 [Compound 364, (6-Fluoro-7-methoxy-2,4-dihydro-indeno[1,2-c]pyrazol-3-yl)-pyridin-3-yl-amine]
